Values of other authors, collected in patent US9682109B2, “Antiviral resistance mutants and applications thereof” (ABL SA, priority 2005, dated 2017).
Structures can show the parent of a compound that is named as a salt.

Columns and labels:
[1] = tested on: wild-type and lamivudine-resistant strains of HBV
[2] = tested on: HBV replication
[3] = tested on: HBV; conditions: 30 mg daily dose, over 12 weeks, phase II studies (Heathcote et al 1998)
[4] = tested on: HIV
[5] = tested on: HBV

SMILES	clinical activity [1]	inhibitor of HBV replication [2]	mean decrease in viremia [3] [log10]	antiviral activity against HIV [4]	antiviral activity against HBV [5]
CC(C)(C)C(=O)OCOP(=O)(COCCn1cnc2c(N)ncnc21)OCOC(=O)C(C)(C)C [ADV, adefovir dipivoxil]	demonstrated clinical activity	potent inhibitor	4	–	–
Nc1nc(=O)n([C@@H]2CS[C@H](CO)O2)cc1F [FTC, (−)-β-L-2′-3′-dideoxy-5-fluoro-3′-thiacydidine]	–	–	–	activity	activity
CC(C)OC(=O)OCOP(=O)(CO[C@H](C)Cn1cnc2c(N)ncnc21)OCOC(=O)OC(C)C [TFV, tenofovir disoproxil fumarate]	–	–	–	antiviral activity	antiviral activity
